Measurements taken from the NIST ThermoML archive (doi:10.1021/je7003758).

Experiment: xn = mol fraction of the nth substance listed
Conditions: 298.15 K, Liquid

ClCCCl [1,2-dichloroethane] + CN1CCCC1=O
mass density [kg/m3]
Conditions | x2 = 0.0993 | x2 = 0.2025 | x2 = 0.3012 | x2 = 0.4029 | x2 = 0.4975 | x2 = 0.5832 | x2 = 0.7037 | x2 = 0.7984 | x2 = 0.9029
15000 kPa | – | – | – | – | – | – | 1094 | 1074.8 | 1054.3
15400 kPa | – | – | – | – | – | 1119.8 | – | – | –
15500 kPa | 1233.7 | 1207.8 | 1184.1 | 1160.2 | 1138.7 | – | 1094.3 | 1075 | 1054.6
15900 kPa | – | 1208.2 | – | – | – | 1120 | – | – | –
16000 kPa | 1234.2 | – | 1184.4 | 1160.5 | 1139 | – | 1094.6 | 1075.3 | 1054.8
16500 kPa | 1234.6 | 1208.6 | 1184.8 | 1160.9 | 1139.3 | 1120.4 | 1094.8 | 1075.6 | 1055.1
17000 kPa | 1235 | – | 1185.1 | 1161.2 | 1139.7 | 1120.7 | 1095.1 | 1075.9 | 1055.3
17100 kPa | – | 1209 | – | – | – | – | – | – | –
17400 kPa | – | – | 1185.4 | – | – | – | – | – | –
17500 kPa | 1235.4 | 1209.4 | – | 1161.6 | 1140 | 1121 | 1095.4 | 1076.1 | 1055.6
17900 kPa | – | – | – | 1161.8 | – | – | – | – | –
18000 kPa | 1235.8 | 1209.8 | 1185.8 | – | 1140.3 | 1121.2 | 1095.7 | 1076.4 | 1055.8
18400 kPa | – | 1210.2 | – | 1162.2 | – | – | – | – | –
18500 kPa | 1236.2 | – | 1186.1 | – | 1140.6 | 1121.5 | 1096 | 1076.7 | 1056.1
19000 kPa | 1236.6 | 1210.6 | 1186.6 | 1162.6 | 1140.9 | 1121.9 | 1096.3 | 1077 | 1056.4
19400 kPa | – | – | – | – | 1141.3 | – | – | – | –
19500 kPa | 1237 | 1211 | 1186.9 | 1163 | – | 1122.2 | 1096.6 | 1077.2 | 1056.6
20000 kPa | 1237.5 | 1211.4 | 1187.4 | 1163.4 | 1141.9 | 1122.6 | 1096.9 | 1077.5 | 1057.1
